From patent US12281125B2, “Rapamycin derivatives” (NOVARTIS AG, priority 2018, dated 2025)

Tests used:
[1] = system: mTORC1 pathway (S6 phosphorylation) in rat liver; test: Inhibition of mTORc1 pathway in rat liver (p-S6/t-S6 immunoblot); format: in vivo; conditions: single oral dose 1, 3 and 10 mg/kg, liver at 3 hours, compared with vehicle control
Description: Rats were given a single oral dose of Compound 2 at 1, 3 or 10 mg/kg, and liver samples were collected at 3 hours following dosing. Rats treated with a vehicle were used as a control. […] GAPDH (glyceraldehyde 3-phosphate dehydrogenase) was used to control for protein loading. […] In the histogram depicted in FIG. 4B, average arbitrary values that indicate p-S6/t-S6 ratios are shown above each bar. X axis represents orally given doses (1, 3, or 10 mg/kg). Y-axis represents arbitrary units. Six rats were used in each experimental group. Data are mean±standard deviation. Data were analyzed with a one way ANOVA followed by Dunnett's multiple comparison tests, where means from all groups were compared to the vehicle treated group. […]. […]
Various organs were collected and frozen in liquid nitrogen. […] All tissues were stored at −80° C. until analyzed.
For protein extraction, snap frozen tissues were lysed in MSD Lysis Buffer (MSD, Rockville, Md.), supplemented with complete EDTA free protease inhibitor and PhosSTOP phosphatase inhibitor tablets (Roche, Manheim, Germany), and centrifuged at 13,000 g for 20 min at 4° C. […] Protein was quantified with BCA protein assay (Thermo Scientific, MA). […] Glyceraldehyde 3-phosphate dehydrogenase (GAPDH) detected with an anti-GAPDH antibody (#5174, Cell Signaling Technologies, MA) was used as a protein loading control. […]

[2] = target: T1, FKBP12 (Homo sapiens, UniProt P62942); test: SPR assay, binding affinity to FKBP12; conditions: equilibrium dissociation constant
T1 construct: made in house; host or cells: E. coli
T1 sequence (P62942 whole entry): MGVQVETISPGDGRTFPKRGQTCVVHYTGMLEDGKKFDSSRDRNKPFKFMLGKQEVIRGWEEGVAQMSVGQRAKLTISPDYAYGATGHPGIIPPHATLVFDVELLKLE
Text: N-terminal avi-his6-tagged FKBP fusion proteins were expressed in E. coli and purified with nickel chromatography using standard procedures. Biotinylated his-avi-FKBPs were immobilized on a streptavidin chip using a Biacore 8K (GE Healthcare). […] The single-cycle kinetics data were fit to a 1:1 binding model to measure the association rate ka (1/Ms), the dissociation rate kd (1/s) and the affinity KD (M). […] The single-cycle kinetics data was fit to a 1:1 binding model to measure the association rate ka (1/Ms), the dissociation rate kd (1/s) and the apparent affinity KD (M) for ternary complex formation. The equilibrium dissociation constants (KD) to FKBP12, FKBP51, and FKBP52 are shown below in Table 6.

[3] = system: mTORc1 signaling, pS6 (Ser240/244) in MEF TSCl−/− cells; test: Cell-based assay for rapalog potency (pS6) in MEF TSCl−/− cells; conditions: Mus musculus, 2 hours treatment, average from multiple assays
Description: Rapalog potency was determined using MEF TSCl−/− cell based assay. MEF TSCl−/− cells are Mouse Embryonic Fibroblasts deficient in Tuberous sclerosis protein—TSCl, which negatively regulates mTORc1 signaling and thus display constitutive mTORc1 activation, resulting in phosphorylation (activation) of downstream molecules. This cell-based assay is used to measure inhibition (de-phosphorylation) of S6 and 4EBP1 by rapalogs or other mTOR inhibitors.
MEF TSCl−/− cells were plated on Poly-D-lysine coated 384 well Griener clear bottom plates and incubated overnight at 37° C., 5% CO2. On the following day, cells were washed 8 times with “Hard starve” solution (1 L DPBS+1 g D-(+) glucose+10 ml of 7.5% Sodium Bicarbonate+20 ml of 1M HEPES) and incubated for further 2 hours in the same solution. Cells were next treated with compounds with decreasing concentrations (8 points at 3.16 fold dilutions) and incubated for 2 hours at 37° C., 5% CO2. Cells were fixed with 4% paraformaldehyde for 30 min and washed 5 times with TBS-EDTA followed by immuno-staining with fluorescent tag labeled antibodies for pS6 (Ser240/244) (Cell Signaling #9468) and p4EBP1 (Thr 37/46) (Cell Signaling #5123). Nuclei were visualized with Hoechst (ThermoFisher Scientific #H3570) staining. Cells were imaged (InCell 600) using respective fluorescence channels and the potency of mTOR inhibitors was defined by pS6 IC50 (nM).
In vitro potency of mTOR inhibitors was defined by pS6 IC50 (nM) in MEF TSCl−/− cells.
IC50 values are calculated as the average from multiple assays.

SMILES: CO[C@@H]1C[C@H](C[C@@H](C)[C@@H]2CC[C@H](C)/C=C(\C)[C@@H](O)[C@@H](OC)C(=O)[C@H](C)C[C@H](C)/C=C/C=C/C=C(\C)[C@@H](NS(C)(=O)=O)C[C@@H]3CC[C@@H](C)[C@@](O)(O3)C(=O)C(=O)N3CCCC[C@H]3C(=O)O2)CC[C@H]1O [Compound 2]
- de-phosphorylation (inactivation) of S6 in rat livers [1]: significant de-phosphorylation (inactivation) of S6
- Kd [2]: 4.8 nM
- IC50 [3]: 0.11 nM
